Test results: ChEMBL document CHEMBL1201862, “PubChem BioAssay data set” (2004)
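Five concentrations, 48 hours, 96-well plates. The concentration for 50% growth inhibition is given as GI50.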 Activity calls are given as the source filed them. Rule as the data show it: active = GI50 up to about 1.1 µM and inactive = higher.

How the values were obtained:
Test in all cases: NCI anticancer screen, dose series, 48 h
[1] = system: 786-0
[2] = system: CCRF-CEM
[3] = system: DU-145
[4] = system: HCC 2998
[5] = system: HOP-92
[6] = system: KM12
[7] = system: M14
[8] = system: MDA-MB-435
[9] = system: MOLT-4
[10] = system: NCI-H226
[11] = system: SF-268
[12] = system: SF-295
[13] = system: SK-MEL-28
[14] = system: SK-MEL-2
[15] = system: SNB-19
[16] = system: SNB-75
[17] = system: T47D
[18] = system: TK-10
[19] = system: UO-31
[20] = system: OVCAR-3

## CC(=O)Nc1ccc(-c2nc3ccccc3s2)cc1C
[1]
  GI50: 52.6 µM (inactive)
[2]
  GI50: > 100 µM (inactive)
[3]
  GI50: 22.2 µM (inactive)
[4]
  GI50: 42.9 µM (inactive)
[5]
  GI50: > 100 µM (inactive)
[6]
  GI50: 51.2 µM (inactive)
[7]
  GI50: 68.7 µM (inactive)
[8]
  GI50: > 100 µM (inactive)
[9]
  GI50: 24.9 µM (inactive)
[10]
  GI50: 26.9 µM (inactive)
[11]
  GI50: 64.4 µM (inactive)
[12]
  GI50: 40 µM (inactive)
[13]
  GI50: 99.1 µM (inactive)
[14]
  GI50: 37.1 µM (inactive)
[15]
  GI50: 36.9 µM (inactive)
[16]
  GI50: 38.5 µM (inactive)
[17]
  GI50: 12.2 µM (inactive)
[18]
  GI50: 72.9 µM (inactive)
[19]
  GI50: 17.9 µM (inactive)

## N=C(N)N/N=C(/c1ccccc1)c1ccc(O)cc1O
[1]
  GI50: 29.2 µM (inactive)
[3]
  GI50: 33 µM (inactive)
[4]
  GI50: 16.9 µM (inactive)
[5]
  GI50: 36.6 µM (inactive)
[6]
  GI50: 30.5 µM (inactive)
[7]
  GI50: 23 µM (inactive)
[8]
  GI50: 19.1 µM (inactive)
[10]
  GI50: 29.9 µM (inactive)
[20]
  GI50: 26.9 µM (inactive)
[11]
  GI50: 32.6 µM (inactive)
[12]
  GI50: 28.2 µM (inactive)
[13]
  GI50: 72.6 µM (inactive)
[14]
  GI50: 45.7 µM (inactive)
[15]
  GI50: 40.6 µM (inactive)
[16]
  GI50: 49 µM (inactive)
[17]
  GI50: 45.3 µM (inactive)
[18]
  GI50: 31.6 µM (inactive)
[19]
  GI50: 46.1 µM (inactive)

## O=c1[nH]ncc2[nH]c3c(c12)CCc1ccccc1-3
[1]
  GI50: 36.1 µM (inactive)
[2]
  GI50: 31.5 µM (inactive)
[3]
  GI50: 38 µM (inactive)
[5]
  GI50: 30.9 µM (inactive)
[6]
  GI50: 28.2 µM (inactive)
[7]
  GI50: 44.3 µM (inactive)
[8]
  GI50: 24.9 µM (inactive)
[9]
  GI50: 24.3 µM (inactive)
[10]
  GI50: 13.5 µM (inactive)
[20]
  GI50: 28.2 µM (inactive)
[11]
  GI50: 32.1 µM (inactive)
[12]
  GI50: 37.8 µM (inactive)
[13]
  GI50: 39.9 µM (inactive)
[14]
  GI50: 23 µM (inactive)
[15]
  GI50: 54.3 µM (inactive)
[16]
  GI50: 13 µM (inactive)
[17]
  GI50: 25.2 µM (inactive)
[18]
  GI50: 27.6 µM (inactive)
[19]
  GI50: 30.2 µM (inactive)

## FC(F)(Sc1ccccn1)c1nc2ccccc2o1
[1]
  GI50: > 100 µM (inactive)
[2]
  GI50: 65.2 µM (inactive)
[3]
  GI50: > 100 µM (inactive)
[4]
  GI50: > 100 µM (inactive)
[5]
  GI50: 76.6 µM (inactive)
[6]
  GI50: > 100 µM (inactive)
[7]
  GI50: > 100 µM (inactive)
[8]
  GI50: > 100 µM (inactive)
[9]
  GI50: > 100 µM (inactive)
[10]
  GI50: > 100 µM (inactive)
[20]
  GI50: 61.4 µM (inactive)
[11]
  GI50: > 100 µM (inactive)
[12]
  GI50: > 100 µM (inactive)
[13]
  GI50: > 100 µM (inactive)
[14]
  GI50: > 100 µM (inactive)
[17]
  GI50: > 100 µM (inactive)
[18]
  GI50: > 100 µM (inactive)
[19]
  GI50: 69.7 µM (inactive)

## N/C(=N\N=C\c1nc2ccccc2o1)c1cnccn1
[1]
  GI50: 66.7 µM (inactive)
[2]
  GI50: > 100 µM (inactive)
[3]
  GI50: > 100 µM (inactive)
[5]
  GI50: > 100 µM (inactive)
[6]
  GI50: > 100 µM (inactive)
[7]
  GI50: > 100 µM (inactive)
[8]
  GI50: > 100 µM (inactive)
[9]
  GI50: > 100 µM (inactive)
[10]
  GI50: > 100 µM (inactive)
[20]
  GI50: > 100 µM (inactive)
[11]
  GI50: > 100 µM (inactive)
[12]
  GI50: 87.9 µM (inactive)
[13]
  GI50: > 100 µM (inactive)
[14]
  GI50: 80.7 µM (inactive)
[15]
  GI50: > 100 µM (inactive)
[16]
  GI50: 16.4 µM (inactive)
[17]
  GI50: 51.4 µM (inactive)
[18]
  GI50: 30.7 µM (inactive)
[19]
  GI50: > 100 µM (inactive)

## N#CCCN(CCC#N)c1ccc(C(/N=N/c2ccc(Cl)cc2)=N\c2ccccc2)cc1
[1]
  GI50: 14.9 µM (inactive)
[3]
  GI50: 13.4 µM (inactive)
[4]
  GI50: 6.55 µM (inactive)
[5]
  GI50: 16.4 µM (inactive)
[6]
  GI50: 11.4 µM (inactive)
[7]
  GI50: 12.9 µM (inactive)
[8]
  GI50: 11 µM (inactive)
[9]
  GI50: 22.7 µM (inactive)
[10]
  GI50: 16 µM (inactive)
[20]
  GI50: 9.77 µM (inactive)
[11]
  GI50: 13.2 µM (inactive)
[12]
  GI50: 1.06 µM (active)
[13]
  GI50: 15.3 µM (inactive)
[14]
  GI50: 2.09 µM (inactive)
[15]
  GI50: 12.2 µM (inactive)
[16]
  GI50: 17.4 µM (inactive)
[17]
  GI50: 8.55 µM (inactive)
[18]
  GI50: 15.5 µM (inactive)
[19]
  GI50: 8.91 µM (inactive)

## COC(=O)CC1C(COC(C)=O)OC(n2cc(C)c(=O)[nH]c2=O)C1OC(C)=O (stereo not given)
[1]
  GI50: > 100 µM (inactive)
[2]
  GI50: > 100 µM (inactive)
[3]
  GI50: > 100 µM (inactive)
[4]
  GI50: > 100 µM (inactive)
[5]
  GI50: > 100 µM (inactive)
[6]
  GI50: > 100 µM (inactive)
[7]
  GI50: > 100 µM (inactive)
[8]
  GI50: > 100 µM (inactive)
[10]
  GI50: > 100 µM (inactive)
[20]
  GI50: > 100 µM (inactive)
[11]
  GI50: > 100 µM (inactive)
[12]
  GI50: > 100 µM (inactive)
[13]
  GI50: > 100 µM (inactive)
[14]
  GI50: > 100 µM (inactive)
[15]
  GI50: > 100 µM (inactive)
[16]
  GI50: > 100 µM (inactive)
[17]
  GI50: > 100 µM (inactive)
[18]
  GI50: > 100 µM (inactive)
[19]
  GI50: > 100 µM (inactive)

## COC(=O)C1C(=O)C=CN([C@H](C)c2ccccc2)[C@@H]1Cc1ccc(OC)c(OCc2ccccc2)c1I (stereo not given in full)
[1]
  GI50: 16.4 µM (inactive)
[2]
  GI50: 24.5 µM (inactive)
[3]
  GI50: 18.2 µM (inactive)
[4]
  GI50: 14.3 µM (inactive)
[5]
  GI50: 3.3 µM (inactive)
[6]
  GI50: 19.2 µM (inactive)
[7]
  GI50: 14.5 µM (inactive)
[8]
  GI50: 17 µM (inactive)
[9]
  GI50: 8.79 µM (inactive)
[10]
  GI50: 15.8 µM (inactive)
[20]
  GI50: 14.6 µM (inactive)
[11]
  GI50: 14.9 µM (inactive)
[12]
  GI50: 16.9 µM (inactive)
[13]
  GI50: 40.6 µM (inactive)
[14]
  GI50: 18.9 µM (inactive)
[15]
  GI50: 15 µM (inactive)
[17]
  GI50: 13.8 µM (inactive)
[18]
  GI50: 23.7 µM (inactive)
[19]
  GI50: 12 µM (inactive)
